Measurements from patent publication US20050245527A1, “Nitrogen containing heterocyclic compounds and medicines containing the same” (priority 2002, published 2005).

Columns and labels:
anesthetized dogs = test: Evaluation of cardiovascular dynamics and electrocardiogram in anesthetized dogs; type: in vivo, dog; details: single administration; for HR / LVdP/dt / PQ interval / QRS interval / QTc interval / mAP: percent change vs value prior to administration; for effects on the cardiovascular system: summary of Tables 4 to 8
Excerpt: <Evaluation of Cardiovascular Dynamics and Electrocardiogram in Anesthetized Dogs> Method Anesthetized dogs were used for the experiment. After isolating the […], a microchip pressure transducer catheter was inserted therein, and the tip was situated near the aortic orifice and in the left ventricle, for measurement of the arterial pressure (AP) and left ventricular pressure (LVP). The LVP was differentiated using a differentiation unit, and the maximum value of the first derivative of the left ventricular pressure ([…] used as the index of the […] contractility. The heart rate (HR) was measured using an instantaneous heart rate counter, with the LVP waveforms as the trigger. A needle electrode was fixed to the right anterior limb and left and right posterior limbs, and a standard II-lead electrocardiogram was taken. The parameters were recorded on a recording sheet. The test substance was administered through the venous catheter inserted in the femoral vein. Administration of Test Substance and Recording Single Administration: The test substance was administered through the catheter for 1 minute. The electrocardiogram was recorded at 2 minutes after administration, and the change in the cardiovascular dynamic was recorded continuously for 10 minutes after the administration. After 10 minutes, the dose was increased and the recording was repeated. Continuous Intravenous Infusion: The test substance was administered through the catheter for a period of one minute, and then a sustained dose was administered by continuous intravenous infusion. The electrocardiogram was recorded at the 5 and 10 minute points, and the change in cardiovascular dynamic was recorded continuously for 10 minutes from the start of administration. After 10 minutes, the dose was increased and the recording was repeated. Analysis The HR, mean arterial pressure (mAP), LVdP/dtmax and electrocardiogram parameters (RR interval, PQ interval, QRS interval, QT interval) were read from the recording sheet. The QT interval was heart rate-corrected and represented as the QTc interval.

[1] = tested on: left saphenous nerve of rats (ectopic firing); test: Inhibition of ectopic firing; type: in vivo; details: Rattus norvegicus, iv; rats with cut left saphenous nerve, urethane anesthesia, compound via catheter in right cervical vein, number of firings in 10 seconds; read-out: Inhibition of ectopic firing (ID50)
Method in brief: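 Rat left saphenous nerve transected near the knee (~3 mm excised); recorded more than a week later under urethane (1 g/kg) anesthesia. Compound given via right cervical vein catheter. Ectopic firing recorded with platinum hook electrode, scored as number of firings in 10 seconds.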

`CN(C)CCC=C1c2ccccc2CCc2ccccc21` [Amitriptyline] gave an HR (anesthetized dogs; dose 0.3 mg/kg weight) of −2.9%, an LVdP/dt (anesthetized dogs; dose 0.3 mg/kg weight) of −5.9% and a PQ interval (anesthetized dogs; dose 0.3 mg/kg weight) of −1.5%. The QRS interval (anesthetized dogs; dose 0.3 mg/kg weight) was 0.4%, the QTc interval (anesthetized dogs; dose 0.3 mg/kg weight) was 1.9% and the mAP (anesthetized dogs; dose 0.3 mg/kg weight) was −0.9%. It also gave an HR (anesthetized dogs; dose 1 mg/kg weight) of −4.0%, an LVdP/dt (anesthetized dogs; dose 1 mg/kg weight) of −21.7% and a PQ interval (anesthetized dogs; dose 1 mg/kg weight) of 8.7%. For the same compound, the QRS interval (anesthetized dogs; dose 1 mg/kg weight) was 15.4%, the QTc interval (anesthetized dogs; dose 1 mg/kg weight) was 13.1% and the mAP (anesthetized dogs; dose 1 mg/kg weight) was −25.4%. For the same compound, the “effects on the cardiovascular system” value (anesthetized dogs) was “exhibited effects on the cardiovascular system”.
`CCN(CC)CCCN(c1ccccc1)C1Cc2ccccc2C1` [Aprindine] gave an HR (anesthetized dogs; dose 2 mg/kg weight) of −12.8%, an LVdP/dt (anesthetized dogs; dose 2 mg/kg weight) of −29% and a PQ interval (anesthetized dogs; dose 2 mg/kg weight) of 14.2%. It also gave a QTc interval (anesthetized dogs; dose 2 mg/kg weight) of 4.5%, a mAP (anesthetized dogs; dose 2 mg/kg weight) of −34.7% and an HR (anesthetized dogs; dose 4 mg/kg weight) of −19.2%. For the same compound, the LVdP/dt (anesthetized dogs; dose 4 mg/kg weight) was −47.5%, the QTc interval (anesthetized dogs; dose 4 mg/kg weight) was −0.4% and the PQ interval (anesthetized dogs) was 36.8%. For the same compound, the mAP (anesthetized dogs) was −47.7% and the “effects on the cardiovascular system” value (anesthetized dogs) was “exhibited effects on the cardiovascular system”.
With `Cc1cccc(C)c1OCC(C)N` (centres unmarked) [Mexiletine] the ED50 [1] was 1 to 3 mg/kg, the HR (anesthetized dogs; dose 2.2 mg/kg weight) was −2.8% and the LVdP/dt (anesthetized dogs; dose 2.2 mg/kg weight) was −20.8%. It also gave a PQ interval (anesthetized dogs; dose 2.2 mg/kg weight) of 0.7%, a QRS interval (anesthetized dogs; dose 2.2 mg/kg weight) of 1.8% and a QTc interval (anesthetized dogs; dose 2.2 mg/kg weight) of −3.0%. It also gave a mAP (anesthetized dogs; dose 2.2 mg/kg weight) of −6.2%, an HR (anesthetized dogs; dose 6.6 mg/kg weight) of −10.6% and an LVdP/dt (anesthetized dogs; dose 6.6 mg/kg weight) of −47.8%. It also gave a PQ interval (anesthetized dogs; dose 6.6 mg/kg weight) of 3.4%, a QRS interval (anesthetized dogs; dose 6.6 mg/kg weight) of 6.3% and a QTc interval (anesthetized dogs; dose 6.6 mg/kg weight) of −4.6%. For the same compound, the mAP (anesthetized dogs; dose 6.6 mg/kg weight) was −44.2% and the “effects on the cardiovascular system” value (anesthetized dogs) was “exhibited effects on the cardiovascular system”.
